Data as given in PubChem BioAssay AID248 (DTP/NCI, 2004).
Toxic doses and inconclusive results are not listed. No stated cut-off is given here; in the data, active means T/C of 150% or more; inactive means T/C below 125%.

Test system: L1210 leukemia ip in BDF1 mice, survival T/C
Assay: NCI In Vivo Anticancer Drug Screen. Data for tumor model L1210 Leukemia (intraperitoneal) in B6D2F1 (BDF1) mice
Conditions: endpoint: mean survival time, higher = longer survival
How it was run: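 Each compound was tested against a transplantable tumor grown in mice. The endpoint was survival, with treated animals benchmarked against vehicle controls as a simple ratio.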

Measured: T/C

CCN(CC)C(=O)C(N)Cc1ccc(OC)c(N(CCCl)CCCl)c1 (stereo unspecified)
inactive: dose: 6.0 mg/kg/injection, schedule: Q01DX009 (ip), vehicle: saline 103 % of control | dose: 10.0 mg/kg/injection, schedule: Q01DX009 (ip), vehicle: saline 103 % of control | dose: 14.0 mg/kg/injection, schedule: Q01DX009 (ip), vehicle: saline 112 % of control | dose: 22.0 mg/kg/injection, schedule: Q01DX009 (ip), vehicle: saline 105 % of control | dose: 33.0 mg/kg/injection, schedule: Q01DX001 (ip), vehicle: saline 123 % of control | dose: 33.0 mg/kg/injection, schedule: Q01DX009 (ip), vehicle: saline 108 % of control | dose: 50.0 mg/kg/injection, schedule: Q01DX001 (ip), vehicle: saline 123 % of control | dose: 50.0 mg/kg/injection, schedule: Q01DX009 (ip), vehicle: carboxymethylcellulose (CMC) 104 % of control | dose: 50.0 mg/kg/injection, schedule: Q01DX009 (ip), vehicle: saline 116 % of control | dose: 75.0 mg/kg/injection, schedule: Q01DX009 (ip), vehicle: carboxymethylcellulose (CMC) 103 % of control | dose: 112.0 mg/kg/injection, schedule: Q01DX001 (ip), vehicle: saline 113 % of control | dose: 112.5 mg/kg/injection, schedule: Q01DX001 (ip), vehicle: carboxymethylcellulose (CMC) 116 % of control | dose: 150.0 mg/kg/injection, schedule: Q01DX001 (ip), vehicle: carboxymethylcellulose (CMC) 117 % of control

CCC[CH2][Sn]([CH2]CCC)([CH2]CCC)[N]=C=S
inactive: dose: 0.39 mg/kg/injection, schedule: Q01DX001 (ip), vehicle: saline with Tween-80 89 % of control | dose: 0.78 mg/kg/injection, schedule: Q01DX001 (ip), vehicle: saline with Tween-80 93 % of control | dose: 1.56 mg/kg/injection, schedule: Q01DX001 (ip), vehicle: saline with Tween-80 105 % of control
